pIC50: −log10 of the molar value.
How the values were obtained:
[1] = target: T1, Caspase 3 (Homo sapiens, UniProt P42574)
T1 sequence (P42574 29-175 limits assumed): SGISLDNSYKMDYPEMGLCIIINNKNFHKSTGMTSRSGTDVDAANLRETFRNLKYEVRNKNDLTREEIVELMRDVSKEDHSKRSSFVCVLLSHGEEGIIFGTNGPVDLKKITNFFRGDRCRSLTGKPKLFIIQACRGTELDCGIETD
T1 sequence (P42574 176-277 limits assumed): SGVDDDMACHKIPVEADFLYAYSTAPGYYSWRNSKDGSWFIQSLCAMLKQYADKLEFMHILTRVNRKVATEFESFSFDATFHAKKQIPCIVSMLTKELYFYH
Experimental: (§1) Caspase 3 screening assays were performed similar to the assays described by Okun et al. [61]. […] The direct fluorometric enzyme assay was performed in a 96 well plate which was read in a temperature-controlled plate reader equipped with a 400-nm excitation filter and 505-nm emission filter. The fluorescence was read every one minute for 60 minutes.
(§2) A volume of 1 μL of DMSO solution was added to 24 μL H2O to produce a final volume of 25 μL/well in a 96 well plate. A volume of 2.5 μL of the Active caspase 3 was added. 2) A positive inhibition control was prepared by adding 1 μL of the caspase 3 Inhibitor (Z-DEVD-FMK, provided in the kit) instead of the tested compounds. 3) The other positive inhibition control was prepared by adding 1 μL of the caspase 3/7 Inhibitor (Compound C2, purchased from ApexBio company A1925) instead of the tested compounds. 4) A negative inhibition control was prepared using pure DMSO without the inhibitor. A volume of 1 μL of pure DMSO to 24 μL H2O to a final volume of 25 μL/well. 5) Master Mix was prepared for each assay containing the follows: a. 22.5 μL 2× Reaction Buffer (containing 10 mM DTT). b. 2.5 μL of the 1 mM Ac-DEVD-AFC substrate (50 μM final concentration). 6) Master Mix was mixed well then 22.5 μL of the Master Mix was added quickly to each well to start the reaction. 7) Samples were read in Gemini EM fluorescence Microplate reader with a 400 nm excitation wavelength and 505 nm emission wavelength every 1 minute for duration of 1 hour at 37° C. 8) Data was exported in an Excel spread sheet format and processed to determine the % inhibition compared to the controls in each plate. The IC50 was calculated using Graphpad PRISM 7 software.
(§3) All designed compounds were screened at a fixed concentration of 10 PM.

[2] = target: T2, Caspase 1 (Homo sapiens, UniProt P29466); test: Caspase 1 inhibitor screening and IC50 assay (direct fluorometric enzyme assay); assay type: biochemical; settings: calculated by Graphpad PRISM 7; read-out: IC50 (nM) against Caspase 1
T2 construct: purchased Raybiotech Company 68FL-Casp1-S200
T2 sequence (P29466 120-297 limits assumed): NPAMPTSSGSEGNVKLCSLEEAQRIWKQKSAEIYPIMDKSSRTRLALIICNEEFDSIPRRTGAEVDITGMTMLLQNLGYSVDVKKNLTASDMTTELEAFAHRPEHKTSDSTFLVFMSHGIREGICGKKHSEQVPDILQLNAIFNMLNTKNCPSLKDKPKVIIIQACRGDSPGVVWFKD
T2 sequence (P29466 317-404 limits assumed): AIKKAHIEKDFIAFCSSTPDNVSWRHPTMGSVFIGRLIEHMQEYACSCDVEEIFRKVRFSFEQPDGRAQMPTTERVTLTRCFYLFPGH
Experimental: Caspase 3 screening assays were performed similar to the assays described by Okun et al. [61]. The caspase 3 inhibitor drug screening kits were purchases from Raybiotech Company (Caspase 3: Item number is 68SR-Casp3S100), (Caspase 7: Item number is 68SR-Casp7-S100), and (Caspase 1: Item number is 68FL-Casp1-S200). The direct fluorometric enzyme assay was performed in a 96 well plate which was read in a temperature-controlled plate reader equipped with a 400-nm excitation filter and 505-nm emission filter. The fluorescence was read every one minute for 60 minutes.

[3] = target: T1, Caspase 3; test: biochemical
Experimental: as §1, §2, §3

[4] = target: T3, Caspase 7 (Homo sapiens, UniProt P55210); test: biochemical
T3 sequence (P55210 24-198 limits assumed): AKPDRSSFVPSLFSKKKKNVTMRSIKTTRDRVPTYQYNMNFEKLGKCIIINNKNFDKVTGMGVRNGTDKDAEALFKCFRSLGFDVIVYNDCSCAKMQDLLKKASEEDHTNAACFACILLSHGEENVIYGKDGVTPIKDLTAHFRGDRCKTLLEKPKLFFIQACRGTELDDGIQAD
T3 sequence (P55210 207-303 limits assumed): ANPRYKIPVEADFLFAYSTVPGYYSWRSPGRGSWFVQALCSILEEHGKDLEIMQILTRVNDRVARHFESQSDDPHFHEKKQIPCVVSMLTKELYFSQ

SMILES	inhibition [1]	IC50 [2]	pIC50 [3]	pIC50 [4]
Cc1cc(N2C(=O)c3c(C)nc4ccc(F)cc4c3C2=O)c2ccccc2n1 [Compound F4, 8-fluoro-4-methyl-2-(2-methylquinolin-4-yl)-1H,2H,3H-pyrrolo[3,4-c]quinoline-1,3-dione]	~30%			
Cc1cc(N2C(=O)c3c(C)nc4ccccc4c3C2=O)c2ccccc2n1 [Compound H4, 4-methyl-2-(2-methylquinolin-4-yl)-1H,2H,3H-pyrrolo[3,4-c]quinoline-1,3-dione]	~30%			
Cc1nc2ccccc2c2c1C(=O)N(c1ccc(I)cc1)C2=O [Compound H11, 2-(4-iodophenyl)-4-methyl-1H,2H,3H-pyrrolo[3,4-c]quinoline-1,3-dione]	~25%			
Cc1ccc(N2C(=O)c3c(C)nc4ccccc4c3C2=O)cc1 [Compound H13, 4-methyl-2-(4-methylphenyl)-1H,2H,3H-pyrrolo[3,4-c]quinoline-1,3-dione]	~25%			
Cc1cc(N2C(=O)c3c(C)nc4ccc(S(=O)(=O)N5CCOCC5)cc4c3C2=O)c2ccccc2n1 [MO4, 4-methyl-2-(2-methylquinolin-4-yl)-8-(morpholine-4-sulfonyl)-1H,2H,3H-pyrrolo[3,4c]quinoline-1,3-dione]		178 nM	6.13	7.45
Cc1nc2ccc(S(=O)(=O)N3CCOCC3)cc2c2c1C(=O)N(c1ccc(I)cc1)C2=O [MO11, 2-(4-iodophenyl)-4-methyl-8-(morpholine-4-sulfonyl)-1H,2H,3H-pyrrolo[3,4-c]quinoline1,3-dione]			6.52 to 7.00	
Cc1ccc(N2C(=O)c3c(C)nc4ccc(S(=O)(=O)N5CCOCC5)cc4c3C2=O)cc1 [MO13, 4-methyl-2-(4-methylphenyl)-8-(morpholine-4-sulfonyl)-1H,2H,3H-pyrrolo[3,4-c]quinoline1,3-dione]		361 nM	6.78	6.84
C#Cc1cccc(N2C(=O)c3c(C)nc4ccc(S(=O)(=O)N5CCCCC5)cc4c3C2=O)c1 [PE5, 2-(3-ethynylphenyl)-4-methyl-8-(piperidine-1-sulfonyl)-1H,2H,3H-pyrrolo[3,4-c]quinoline1,3-dione]		261 nM	6.11	6.39
Cc1nc2ccc(S(=O)(=O)N3CCCC3)cc2c2c(=O)n(-c3ccccc3)[nH]c(=O)c12 [PY6B, 5-methyl-2-phenyl-9-(pyrrolidine-1-sulfonyl)-1H,2H,3H,4H-pyridazino[4,5-c]quinoline-1,4dione]			~5.40	
